# From patent US8598183B2, “Solid state forms of a potent HCV inhibitor” (Boehringer Ingelheim International GmbH, priority 2010, dated 2013)
# Key:
# [1] = Powder dissolution testing in pH 6.8 buffer, USP Type II Paddle apparatus; format: physicochemical; conditions: 60 minutes
# [2] = Physical and chemical stability under accelerated storage conditions; format: physicochemical
# Experimental: The glass transition temperature of the amorphous form of Compound (1) sodium salt is >200° C., which is quite atypical for pharmaceutical active materials and can be considered an unexpected finding.
# [3] = Solubility of Compound (1) in physiological pH range; thermodynamic solubility; format: physicochemical; conditions: aqueous buffer, thermodynamic from solid; physiological pH range of 2-6.8
# Experimental: Doses of Compound (1) up to 400 to 600 mg per dose may be required to be delivered to obtain exposures necessary for sufficient efficacy in vivo. Based on thermodynamic solubility of Compound (1), solubility of 0.005-0.01 mg/ml is estimated for Compound (1) sodium salt.
# [4] = molecular target: HCV NS5B RNA-dependent RNA polymerase (Hepatitis C virus genotype 1a, UniProt P27958); conditions: cited from earlier work
# Sequence of HCV NS5B RNA-dependent RNA polymerase (P27958 2421-3011): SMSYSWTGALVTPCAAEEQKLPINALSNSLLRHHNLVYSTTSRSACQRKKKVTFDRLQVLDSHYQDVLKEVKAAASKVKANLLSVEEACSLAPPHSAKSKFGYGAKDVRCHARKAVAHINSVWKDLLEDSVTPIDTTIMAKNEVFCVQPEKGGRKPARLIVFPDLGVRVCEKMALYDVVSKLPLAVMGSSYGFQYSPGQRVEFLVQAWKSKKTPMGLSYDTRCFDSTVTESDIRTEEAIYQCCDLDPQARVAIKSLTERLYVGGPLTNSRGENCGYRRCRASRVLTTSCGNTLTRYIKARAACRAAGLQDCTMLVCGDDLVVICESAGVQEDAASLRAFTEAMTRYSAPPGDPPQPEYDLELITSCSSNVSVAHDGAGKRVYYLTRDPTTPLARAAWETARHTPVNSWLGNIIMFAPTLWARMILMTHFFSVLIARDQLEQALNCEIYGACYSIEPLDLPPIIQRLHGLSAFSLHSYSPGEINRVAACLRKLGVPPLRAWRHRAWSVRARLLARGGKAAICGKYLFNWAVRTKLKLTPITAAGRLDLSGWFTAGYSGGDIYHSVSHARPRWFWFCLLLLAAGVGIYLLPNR
Compound,% dissolved (kinetic dissolution) [1],physical and chemical stability [2],solubility [3] [µg/mL],inhibition of HCV NS5B RNA-dependent RNA polymerase [4]
Cn1c(C2(NC(=O)c3ccc4c(C5CCCC5)c(-c5ncc(Br)cn5)n(C)c4c3)CCC2)nc2ccc(/C=C/C(=O)[O-])cc21.[Na+] [amorphous Compound (1) sodium salt],about 35%,acceptable physical and chemical stability,,
"Cn1c(C2(NC(=O)c3ccc4c(C5CCCC5)c(-c5ncc(Br)cn5)n(C)c4c3)CCC2)nc2ccc(/C=C/C(=O)O)cc21 [Compound (1), (E)-3-[2-(1-{[2-(5-Bromo-pyrimidin-2-yl)-3-cyclopentyl-1-methyl-1H-indole-6-carbonyl]-amino}-cyclobutyl)-3-methyl-3H-benzimidazol-5-yl]-acrylic acid]",,,< 0.2,selective and potent inhibitor
